Source: PMC2847825 (Biological chemistry, 2009)

Biological target: T1, phenylalanine hydroxylase (Rattus norvegicus, UniProt P04176)
T1 sequence (P04176 2-453): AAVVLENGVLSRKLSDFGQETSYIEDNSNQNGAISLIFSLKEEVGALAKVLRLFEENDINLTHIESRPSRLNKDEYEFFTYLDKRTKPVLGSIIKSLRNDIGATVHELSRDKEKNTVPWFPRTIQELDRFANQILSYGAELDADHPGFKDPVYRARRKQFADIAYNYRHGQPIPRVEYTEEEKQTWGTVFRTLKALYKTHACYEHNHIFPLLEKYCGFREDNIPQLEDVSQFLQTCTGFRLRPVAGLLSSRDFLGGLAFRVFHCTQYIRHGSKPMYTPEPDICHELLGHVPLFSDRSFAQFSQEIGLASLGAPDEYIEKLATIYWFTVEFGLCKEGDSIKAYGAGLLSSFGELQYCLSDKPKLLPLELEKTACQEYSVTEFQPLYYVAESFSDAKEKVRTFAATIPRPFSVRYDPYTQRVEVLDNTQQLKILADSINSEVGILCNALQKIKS
Assay: recombinant enzyme activity, HPLC detection of tyrosine
Type: biochemical

c1cnc2c(c1)ccc1cccnc12 [1,10-phenanthroline]
recombinant enzyme activity, HPLC detection of tyrosine: 0.01 mM
